In US8343512B2, “Treatment of allergic conditions using a composition containing synthetic adjuvant” (Infectious Disease Research Institute, priority 2006, dated 2013):

Legend:
ID83 antigen = ID83 antigen with GLA-SE, GLA/CpG-SE or GLA/GDQ-SE in mice, intracellular cytokine staining; assay type: in vivo, Mice (C57BL/6); conditions: GLA/GDQ-SE or GLA/CpG-SE versus GLA-SE
[1] = test system: Dendritic cells derived from purified blood CD14+ monocytes; test: GLA stimulation of human dendritic cells, CD86 surface expression by flow cytometry; assay type: cell-based
From the text: Dendritic cells were derived from purified blood CD14+ monocytes following a published protocol. Various adjuvant concentrations of either synthetic GLA (Avanti Polar Lipids, Inc., Alabaster, Ala.; product number 699800) or the natural product MPL® (GSK Biologicals, Rixensart, Belgium) were achieved by diluting an aqueous adjuvant preparation in cell culture medium (RPMI containing 5% human serum). Prior to collection and analysis of the expression of activation markers, cells were maintained for 44 hours at 37° C. in a humidified atmosphere containing 5% CO2. Expression levels of the costimulatory molecule CD86 at the surface of DC were used as an indicator of cell activation and measured by flow cytometry on a LSRII instrument (BD Biosciences, San Jose, Calif.) using CD86-specific fluorochrome-labeled antibody (eBiosciences, San Diego, Calif.) according to the manufacturer's instructions.

USP Rabbit Pyrogen Test = conditions: in vivo
Experimental: GLA and MPL were evaluated for pyrogenicity/toxicity using the United States Pharmacopeial (USP) rabbit pyrogen test method. GLA was tested at the same doses and conditions commonly used for MPL.

Human whole blood cells = test: GLA stimulation of human blood cells, IL-1β ELISA; assay type: cell-based; conditions: 16 hours
Experimental: Human whole blood cells were cultured with various adjuvant concentrations of either synthetic GLA (Avanti Polar Lipids, Inc., Alabaster, Ala.; product number 699800) or the natural product MPL® (GSK Biologicals, Rixensart, Belgium), achieved by diluting an aqueous adjuvant preparation in cell culture medium (DMEM containing 10% fetal bovine serum). Blood cells were maintained for 16 hours at 37° C. in a humidified atmosphere containing 5% CO2, prior to collection of cell-free culture supernatants. Supernatant fluids were assayed for soluble human cytokine IL-1β using specific sandwich ELISA assay kit (eBiosciences, San Diego, Calif.) according to the manufacturer's instructions.

Leish-110f antigen = Leish-110f antigen with different amounts of GLA-SE in mice, IgG1/IgG2a ELISA; assay type: in vivo, Mice (Balb/c)
Experimental: Mice (three Balb/c animals per group) were immunized three times at two-week intervals with the Leish-110f antigen (10 μg per animal for each immunization) formulated in a stable emulsion containing different amounts of GLA (Avanti Polar Lipids, Inc., Alabaster, Ala.; product number 699800; 40, 20, 5, or 1 μg per animal for each immunization according to the procedure used in Example 3 above, GLA-SE). Sera were collected by bleeding animals one week after the first immunization, and serum levels of IgG1 and IgG2a antibodies specific for Leish-110f were examined by ELISA according to published methods (Id.).

Influenza = test: Fluzone vaccine with GLA-AF or GLA-SE in mice, anti-Fluzone IgG ELISA and HAI; assay type: in vivo, Mice (Balb/c); conditions: GLA 20 μg in aqueous or stable oil formulation; compared to Fluzone alone
Experimental: Mice (three Balb/c animals per group) were immunized twice at three-week intervals with the Fluzone vaccine (Sanofi-Aventis, Swiftwater, Pa., at 1/25 (20 μl) and 1/250 (2 μl) of the human dosage, alone, or formulated in (i) an aqueous emulsion containing GLA (Avanti Polar Lipids, Inc., Alabaster, Ala.; product number 699800; 20 μg per animal for each immunization) according to the procedure used in Example 1 above (“GLA-AF”), or (ii) a stable emulsion containing GLA (Avanti Polar Lipids, Inc., Alabaster, Ala.; product number 699800; 20 μg per animal for each immunization) according to the procedure used in Example 3 above (“GLA-SE”). Sera were collected by bleeding animals one week after each immunization, and serum levels of total IgG antibodies specific for Fluzone were examined by ELISA according to published methods (Id.). Serum levels of virus neutralizing antibodies were also examined by Hemagglutination Inhibition Assay (HAI) according to published methods.

ML0276 antigen = ML0276 antigen with CpG, Imiquimod, GLA-SE or mix in mice, IFN-γ CD4+ T cell ICS; assay type: in vivo, Mice (C57BL/6); conditions: adjuvant given with ML0276 antigen 10 μg; saline background 0.04%
Experimental: Mice (three C57BL/6 animals per group) were immunized three times at three-week intervals with the ML0276 antigen (10 μg per animal for each immunization) adjuvanted with aqueous formulations containing CpG (CpG1826, Coley Pharmaceutical, 25 μg per animal for each immunization), or Imiquimod (IMQ) (3M Pharma, 25 μg per animal for each immunization), or GLA (Avanti Polar Lipids, Inc., Alabaster, Ala.; product number 699800; 25 μg per animal for each immunization, according to the procedure used in Example 3 above, GLA-SE), a mix of the three, or saline as negative control. Three weeks after the last injection, mice were sacrificed and spleen collected to analyze CD4+ T cell-dependent IFN-γ cytokine responses to in vitro ML0276 antigen stimulation by ICS and Flow cytometry according to published methods. Expression of IFN-γ cytokine has been associated with protective TH1 responses against M. leprae infection.

## CCNCc1nc2c(N)nc3ccccc3c2n1CC(C)(C)O [GDQ, Gardiquimod]
ID83 antigen
  frequency of ID83 specific cytokine producing T cells on addition of a second TLR ligand to ID83+GLA-SE: further increased

## CCCCCCCCCCCCCC(=O)O[C@H](CCCCCCCCCCC)CC(=O)O[C@@H]1[C@@H](NC(=O)C[C@@H](CCCCCCCCCCC)OC(=O)CCCCCCCCCCC)[C@H](OC[C@H]2O[C@H](O)[C@H](NC(=O)C[C@H](O)CCCCCCCCCCC)[C@@H](OC(=O)C[C@H](O)CCCCCCCCCCC)[C@@H]2O)O[C@H](CO)[C@H]1OP(=O)(O)O [GLA, glucopyranosyl lipid adjuvant]
[1]; CD86 expression
  active at concentrations lower compared to MPL for human dendritic cell maturation: at least 10 fold
[1]; additional three donors, 1000 ng/ml to 1 ng/mL
  CD86 expression, GLA versus MPL: lower doses of GLA achieved higher CD86 expression than MPL
USP Rabbit Pyrogen Test
  pyrogenicity/toxicity, USP<151> requirements: passed the USP<151> requirements for the absence of pyrogens
Human whole blood cells
  concentration equivalent in potency (IL-1β secretion): 92 nM
Leish-110f antigen; GLA 40, 20, 5, or 1 μg in GLA-SE, one week after the first immunization
  Leish-110f-specific IgG1 and IgG2a antibody titers: GLA dose-dependent
Leish-110f antigen; all concentrations of GLA tested
  predominant Leish-110f-specific antibody isotype: Predominance of TH1 associated IgG2a antibody
Influenza
  Total IgG and neutralizing antibody titers in response to Fluzone vaccination: enhanced

## CC(C)Cn1cnc2c(N)nc3ccccc3c21 [IMQ, Imiquimod]
ML0276 antigen
  frequency of ML0276 specific IFN-γ+ CD4+ T cells (positive cells): 0.11%
